The supplement of paper PMC13207355

Experiments:
Settings in all cases: exposure time: 72 h
E21 [1] = patient-derived glioblastoma stem cells of mesenchymal subtype; assay: phenotypic distance (Euclidean, principal components) from DMSO controls (arbitrary units); higher = stronger morphological change
E13 [2] = patient-derived glioblastoma stem cells of classical subtype; assay: as above
E28 [3] = patient-derived glioblastoma stem cells of classical subtype; assay: as above
E34 [4] = patient-derived glioblastoma stem cells of proneural subtype; assay: as above
E31 [5] = patient-derived glioblastoma stem cells of proneural subtype; assay: as above
E57 [6] = patient-derived glioblastoma stem cells of mesenchymal subtype; assay: as above
FT3469 [7] = normal neural stem cell line; assay: as above
E21 [8] = assay: surviving fraction (nuclei count normalised to DMSO); higher = more cells surviving (less toxic)
E13 [9] = assay: as above
E28 [10] = assay: as above
E34 [11] = assay: as above
E31 [12] = assay: as above
E57 [13] = assay: as above
FT3469 [14] = assay: as above
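Wherever phenotypic distance (Euclidean, principal components) from DMSO controls is given: cell Painting imaging in 384-well plates, CellProfiler features reduced to at least 20 principal components, Euclidean distance versus same-plate DMSO vehicle wells (0.1% v/v), median over six images per well.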
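Wherever surviving fraction (nuclei count normalised to DMSO) is given: nuclei counted by high-content imaging of Hoechst-stained cells in laminin-coated 384-well plates, relative to 0.1% DMSO vehicle wells, with staurosporine as cell-death control.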

CCn1cc(C(=O)O)c(=O)c2cc(F)c(N3CCNCC3)nc21 [Enoxacin]
Settings | phenotypic distance | surviving fraction
E13 [2], 4.1 nM | 0.646 | –
E13 [2], 12.3 nM | 0.69 | –
E13 [2], 37 nM | 0.539 | –
E13 [2], 111.1 nM | 0.399 | –
E13 [2], 333.3 nM | 0.457 | –
E13 [2], 1000 nM | 0.745 | –
E13 [2], 3000 nM | 0.954 | –
E13 [9], 4.1 nM | – | 0.98
E13 [9], 12.3 nM | – | 1.08
E13 [9], 37 nM | – | 0.82
E13 [9], 111.1 nM | – | 1.01
E13 [9], 333.3 nM | – | 0.975
E13 [9], 1000 nM | – | 0.96
E13 [9], 3000 nM | – | 1.05
E21 [1], 4.1 nM | 0.648 | –
E21 [1], 12.3 nM | 0.762 | –
E21 [1], 37 nM | 0.7 | –
E21 [1], 111.1 nM | 0.554 | –
E21 [1], 333.3 nM | 0.603 | –
E21 [1], 1000 nM | 0.823 | –
E21 [1], 3000 nM | 0.597 | –
E21 [8], 4.1 nM | – | 0.976
E21 [8], 12.3 nM | – | 0.98
E21 [8], 37 nM | – | 0.929
E21 [8], 111.1 nM | – | 0.973
E21 [8], 333.3 nM | – | 0.975
E21 [8], 1000 nM | – | 0.987
E21 [8], 3000 nM | – | 0.968
E28 [3], 4.1 nM | 0.627 | –
E28 [3], 12.3 nM | 0.793 | –
E28 [3], 37 nM | 0.478 | –
E28 [3], 111.1 nM | 0.94 | –
E28 [3], 333.3 nM | 0.292 | –
E28 [3], 1000 nM | 0.666 | –
E28 [3], 3000 nM | 0.546 | –
E28 [10], 4.1 nM | – | 0.921
E28 [10], 12.3 nM | – | 1.01
E28 [10], 37 nM | – | 0.969
E28 [10], 111.1 nM | – | 1.22
E28 [10], 333.3 nM | – | 0.982
E28 [10], 1000 nM | – | 0.962
E28 [10], 3000 nM | – | 0.83
E31 [5], 4.1 nM | 0.556 | –
E31 [5], 12.3 nM | 0.523 | –
E31 [5], 37 nM | 0.553 | –
E31 [5], 111.1 nM | 0.528 | –
E31 [5], 333.3 nM | 0.401 | –
E31 [5], 1000 nM | 0.654 | –
E31 [5], 3000 nM | 0.714 | –
E31 [12], 4.1 nM | – | 0.836
E31 [12], 12.3 nM | – | 1
E31 [12], 37 nM | – | 1.09
E31 [12], 111.1 nM | – | 0.95
E31 [12], 333.3 nM | – | 1.02
E31 [12], 1000 nM | – | 1.19
E31 [12], 3000 nM | – | 0.881
E34 [4], 4.1 nM | 0.518 | –
E34 [4], 12.3 nM | 0.658 | –
E34 [4], 37 nM | 0.667 | –
E34 [4], 111.1 nM | 0.731 | –
E34 [4], 333.3 nM | 0.276 | –
E34 [4], 1000 nM | 0.843 | –
E34 [4], 3000 nM | 1.19 | –
E34 [11], 4.1 nM | – | 1.01
E34 [11], 12.3 nM | – | 1.07
E34 [11], 37 nM | – | 1.09
E34 [11], 111.1 nM | – | 0.99
E34 [11], 333.3 nM | – | 1.06
E34 [11], 1000 nM | – | 1.1
E34 [11], 3000 nM | – | 0.885
E57 [6], 4.1 nM | 0.422 | –
E57 [6], 12.3 nM | 0.677 | –
E57 [6], 37 nM | 0.541 | –
E57 [6], 111.1 nM | 0.821 | –
E57 [6], 333.3 nM | 0.482 | –
E57 [6], 1000 nM | 0.537 | –
E57 [6], 3000 nM | 0.807 | –
E57 [13], 4.1 nM | – | 1
E57 [13], 12.3 nM | – | 1.07
E57 [13], 37 nM | – | 1.1
E57 [13], 111.1 nM | – | 1.11
E57 [13], 333.3 nM | – | 1.06
E57 [13], 1000 nM | – | 0.938
E57 [13], 3000 nM | – | 0.959
FT3469 [7], 4.1 nM | 0.513 | –
FT3469 [7], 12.3 nM | 0.577 | –
FT3469 [7], 37 nM | 0.677 | –
FT3469 [7], 111.1 nM | 0.87 | –
FT3469 [7], 333.3 nM | 0.641 | –
FT3469 [7], 1000 nM | 0.47 | –
FT3469 [7], 3000 nM | 0.868 | –
FT3469 [14], 4.1 nM | – | 0.928
FT3469 [14], 12.3 nM | – | 0.931
FT3469 [14], 37 nM | – | 0.867
FT3469 [14], 111.1 nM | – | 1.02
FT3469 [14], 333.3 nM | – | 1.06
FT3469 [14], 1000 nM | – | 0.928
FT3469 [14], 3000 nM | – | 0.971
